For 31 molecules, IC50 results are on record in patent US10604535B2, “Compounds, compositions and methods” (Denali Therapeutics Inc., priority 2016, dated 2020).

Bounds are passed on as bounds.

GST-hRIPK1 (8-327), sequence (Q13546 8-327): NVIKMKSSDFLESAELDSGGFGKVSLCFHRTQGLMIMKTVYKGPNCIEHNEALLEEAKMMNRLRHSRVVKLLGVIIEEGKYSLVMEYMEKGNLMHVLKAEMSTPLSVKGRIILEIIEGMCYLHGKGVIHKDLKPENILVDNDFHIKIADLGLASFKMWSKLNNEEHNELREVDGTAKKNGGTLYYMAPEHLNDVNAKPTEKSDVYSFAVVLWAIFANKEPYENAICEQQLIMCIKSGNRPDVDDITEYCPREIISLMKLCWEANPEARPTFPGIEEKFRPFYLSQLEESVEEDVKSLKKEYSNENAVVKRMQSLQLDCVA

This test concerns the target GST-hRIPK1 (8-327) (Homo sapiens (Human), UniProt Q13546). Nature of the test: Fluorescent Polarization Binding (FP Binding) assay.
For orientation: IC50 means the concentration needed to halve the response being measured. Lower therefore signals greater potency in that assay. In turn, `CN1C(=O)[C@@H](NC(=O)c2nnc(C3(c4ccccc4)CC3)[nH]2)COc2cnccc21` [Example 113, (S)—N-(1-methyl-2-oxo-1,2,3,4-tetrahydropyrido[3,4-b][1,4]oxazepin-3-yl)-5-(1-phenylcyclopropyl)-4H-1,2,4-triazole-3-carboxamide] yielded an IC50 of 0.1 to 1000 nM.
Under `C[C@@H]1Oc2cccnc2N(C)C(=O)[C@H]1NC(=O)c1nn(Cc2ccccc2)cc1F` [Example 93, 1-benzyl-N-((2S,3S)-2,5-dimethyl-4-oxo-2,3,4,5-tetrahydropyrido[3,2-b][1,4]oxazepin-3-yl)-4-fluoro-1H-pyrazole-3-carboxamide] stands 0.1 to 1000 nM.
Under `O=C(N[C@H]1COc2cccnc2-n2ccnc21)c1nnc(Cc2ccccc2)[nH]1` [Example 141B, (R)-5-benzyl-N-(6,7-dihydroimidazo[1,2-d]pyrido[3,2-b][1,4]oxazepin-7-yl)-4H-1,2,4-triazole-3-carboxamide] stands 0.1 to 1000 nM; under `O=C(N[C@@H]1CC2(CC2)c2cccnc2NC1=O)c1nnc(Cc2ccccc2)[nH]1` [Example 98A, (R)-5-benzyl-N-(8′-oxo-6′,7′,8′,9′-tetrahydrospiro[cyclopropane-1,5′-pyrido[2,3-b]azepin]-7′-yl)-4H-1,2,4-triazole-3-carboxamide], over 3000 nM; under `C[C@H]1Oc2ncccc2N(C)C(=O)[C@H]1NC(=O)c1nnc(Cc2ccccc2)o1` [Example 193, 5-benzyl-N-((3S,4R)-1,4-dimethyl-2-oxo-1,2,3,4-tetrahydropyrido[2,3-b][1,4]oxazepin-3-yl)-1,3,4-oxadiazole-2-carboxamide], 0.1 to 1000 nM.
Under `CN1C(=O)C(NC(=O)c2nnc(Cc3ccccc3)[nH]2)[C@@H]2C[C@@H]2c2ccccc21` (stereo in doubt) [Example 46B, 5-benzyl-N-((2S)-4-methyl-3-oxo-1,1a,2,3,4,8b-hexahydrobenzo[b]cyclopropa[d]azepin-2-yl)-4H-1,2,4-triazole-3-carboxamide] stands over 3000 nM.
Turning to `CN1C(=O)[C@H](NC(=O)c2nn(Cc3cccc(C#N)c3)cc2F)CCc2cccnc21` [Example 152A, (R)-1-(3-cyanobenzyl)-4-fluoro-N-(9-methyl-8-oxo-6,7,8,9-tetrahydro-5H-pyrido[2,3-b]azepin-7-yl)-1H-pyrazole-3-carboxamide], the IC50 is over 3000 nM.
With `Cc1cc2n(n1)CC[C@@H](NC(=O)c1nnc(Cc3ccccc3)[nH]1)C(=O)N2C` [Example 129B, (R)-5-Benzyl-N-(2,4-dimethyl-5-oxo-5,6,7,8-tetrahydro-4H-pyrazolo[1,5-a][1,3]diazepin-6-yl)-4H-1,2,4-triazole-3-carboxamide], the 50% inhibitory concentration (IC50) is over 3000 nM.
For the molecule `CN1C(=O)[C@@H](NC(=O)c2nnc(Cc3ccccc3)o2)CCc2nccnc21` [Example 190, (S)-5-benzyl-N-(5-methyl-6-oxo-6,7,8,9-tetrahydro-5H-pyrazino[2,3-b]azepin-7-yl)-1,3,4-oxadiazole-2-carboxamide], the IC50 was 0.1 to 1000 nM.
Under `CN1C(=O)[C@@H](NC(=O)C2CC(Cc3ccccc3)C2)COc2ccccc21` (stereo partly drawn) [Example 43, 3-benzyl-N—((S)-5-methyl-4-oxo-2,3,4,5-tetrahydrobenzo[b][1,4]oxazepin-3-yl)cyclobutane-1-carboxamide] stands 1000 to 10000 nM.
Under `Cc1cnn2c1N(C)C(=O)[C@@H](NC(=O)c1nnc(Cc3ccccc3)[nH]1)CC2` [Example 131A, (S)-5-Benzyl-N-(3,4-dimethyl-5-oxo-5,6,7,8-tetrahydro-4H-pyrazolo[1,5-a][1,3]diazepin-6-yl)-4H-1,2,4-triazole-3-carboxamide] stands 0.1 to 1000 nM.
Under `CN1C(=O)[C@H](NC(=O)c2nnc(Cc3ccccc3)s2)[C@@H]2C[C@@H]2c2cccnc21` [Example 120B, 5-benzyl-N-((1aR,2R,8bS)-4-methyl-3-oxo-1,1a,2,3,4,8b-hexahydrocyclopropa-[d]pyrido[2,3-b]azepin-2-yl)-1,3,4-thiadiazole-2-carboxamide] stands over 3000 nM; under `CN1C(=O)[C@H](NC(=O)c2nnc(Cc3ccccc3)o2)CCc2cccnc21` [Example 148B, (R)-5-benzyl-N-(9-methyl-8-oxo-6,7,8,9-tetrahydro-5H-pyrido[2,3-b]azepin-7-yl)-1,3,4-oxadiazole-2-carboxamide], 1000 to 10000 nM; under `CN1C(=O)[C@@H](NC(=O)c2cc3n(n2)CC[C@@H]3c2ccccc2)COc2ccccc21` [Example 13, (R)—N—((S)-5-methyl-4-oxo-2,3,4,5-tetrahydrobenzo[b][1,4]oxazepin-3-yl)-4-phenyl-5,6-dihydro-4H-pyrrolo[1,2-b]pyrazole-2-carboxamide], 0.1 to 1000 nM.
For the molecule `CN1C(=O)[C@H](NC(=O)c2nn(Cc3ccccc3)cc2F)CCc2nn(C)cc21` [Example 109B, (R)-1-benzyl-N-(2,4-dimethyl-5-oxo-2,4,5,6,7,8-hexahydropyrazolo[4,3-b]azepin-6-yl)-4-fluoro-1H-pyrazole-3-carboxamide], the IC50 is over 3000 nM.
Under `CN1C(=O)[C@@H](NC(=O)c2cc(CC(F)(F)F)on2)COc2ccccc21` [Example 14, (S)—N-(5-methyl-4-oxo-2,3,4,5-tetrahydrobenzo[b][1,4]oxazepin-3-yl)-5-(2,2,2-trifluoroethyl)isoxazole-3-carboxamide] stands 0.1 to 1000 nM.
`CN1C(=O)[C@H](NC(=O)c2nnc(Cc3ccccc3)o2)[C@@H]2C[C@@H]2c2cccnc21` [Example 157A, 5-benzyl-N-((1aR,2R,8bS)-4-methyl-3-oxo-1,1a,2,3,4,8b-hexahydrocyclopropa[d]pyrido[2,3-b]azepin-2-yl)-1,3,4-oxadiazole-2-carboxamide] had an IC50 of over 3000 nM.
The molecule `O=C(N[C@@H]1CC2(CC2)c2cc(F)cc(F)c2NC1=O)c1nnc(Cc2ccccc2)[nH]1` [Example 103A, (R)-5-benzyl-N-(7,9-difluoro-2-oxo-1,2,3,4-tetrahydrospiro[benzo[b]azepine-5,1′-cyclopropan]-3-yl)-4H-1,2,4-triazole-3-carboxamide] had an IC50 of over 3000 nM.
The molecule `CN1C(=O)[C@H](NC(=O)c2nnc(Cc3ccccc3)o2)[C@@H]2C[C@@H]2c2nccnc21` [Example 177B, 5-benzyl-N-((7R,7aR,8aS)-5-methyl-6-oxo-5,6,7,7a,8,8a-hexahydrocyclopropa[d]pyrazino[2,3-b]azepin-7-yl)-1,3,4-oxadiazole-2-carboxamide] gave an IC50 of over 3000 nM.
`CN1C(=O)[C@H](NC(=O)c2nnc(Cc3ccccc3)[nH]2)CCc2nn(C)cc21` [Example 105B, (R)-5-benzyl-N-(2,4-dimethyl-5-oxo-2,4,5,6,7,8-hexahydropyrazolo[4,3-b]azepin-6-yl)-4H-1,2,4-triazole-3-carboxamide] had an IC50 of over 3000 nM.
In turn, `CN1C(=O)[C@H](NC(=O)c2cc(Oc3ccccc3F)ccn2)[C@@H]2C[C@@H]2c2cccnc21` [Example 100B, 4-(2-fluorophenoxy)-N-((1aR,2R,8bS)-4-methyl-3-oxo-1,1a,2,3,4,8b-hexahydrocyclopropa[d]pyrido[2,3-b]azepin-2-yl)picolinamide] registered a half-maximal inhibitory concentration (IC50) of 0.1 to 1000 nM.
Under `Cc1nc2c(s1)CC[C@@H](NC(=O)c1nnc(Cc3ccccc3)[nH]1)C(=O)N2C` [Example 38B, (R)-5-benzyl-N-(2,4-dimethyl-5-oxo-5,6,7,8-tetrahydro-4H-thiazolo[4,5-b]azepin-6-yl)-4H-1,2,4-triazole-3-carboxamide] stands over 3000 nM; under `O=C(N[C@H]1CC2(CC2)c2cccnc2NC1=O)c1nnc(Cc2ccccc2)[nH]1` [Example 98B, (S)-5-benzyl-N-(8′-oxo-6′,7′,8′,9′-tetrahydrospiro[cyclopropane-1,5′-pyrido[2,3-b]azepin]-7′-yl)-4H-1,2,4-triazole-3-carboxamide], 0.1 to 1000 nM; under `CN1C(=O)[C@@H](NC(=O)c2cnc(Cc3ccccc3)[nH]2)COc2cccnc21` [Example 108, (S)-2-benzyl-N-(5-methyl-4-oxo-2,3,4,5-tetrahydropyrido[3,2-b][1,4]oxazepin-3-yl)-1H-imidazole-5-carboxamide], 0.1 to 1000 nM.
Consider `CN1C(=O)[C@H](NC(=O)c2nnc(Cc3ccccc3)[nH]2)CC2(CC2)c2cccnc21` [Example 125A, (R)-5-benzyl-N-(9′-methyl-8′-oxo-6′,7′,8′,9′-tetrahydrospiro[cyclopropane-1,5′-pyrido[2,3-b]azepin]-7′-yl)-4H-1,2,4-triazole-3-carboxamide], for which the IC50 was over 3000 nM.
Under `N#Cc1cccc(Cn2cc(F)c(C(=O)N[C@H]3C(=O)Nc4c(F)cc(F)cc4[C@H]4C[C@H]43)n2)c1` [Example 170B, 1-(3-cyanobenzyl)-N-((1aR,2R,8bS)-5,7-difluoro-3-oxo-1,1a,2,3,4,8b-hexahydrobenzo[b]cyclopropa[d]azepin-2-yl)-4-fluoro-1H-pyrazole-3-carboxamide] stands over 3000 nM; under `[2H]C([2H])([2H])N1C(=O)[C@H](NC(=O)c2nn(Cc3ccccc3)cc2F)[C@@H]2C[C@@H]2c2cc(S(C)(=O)=O)ccc21` [Example 183A, 1-benzyl-4-fluoro-N-((1aR,2R,8bS)-4-trideuteriomethyl-7-(methylsulfonyl)-3-oxo-1,1a,2,3,4,8b-hexahydrobenzo[b]cyclopropa[d]azepin-2-yl)-1H-pyrazole-3-carboxamide], over 3000 nM.
Consider `O=C(N[C@H]1COc2cccnc2NC1=O)c1nnc(C2CCc3ccccc32)[nH]1` (single isomer, unassigned) [Example 102B], for which the IC50 lay in the range of 0.1 to 1000 nM.
Under `CN1C(=O)[C@@H](NC(=O)C2CN(Cc3ccccc3)C2)COc2ccccc21` [Example 33, (S)-1-benzyl-N-(5-methyl-4-oxo-2,3,4,5-tetrahydrobenzo[b][1,4]oxazepin-3-yl) azetidine-3-carboxamide] stands over 10000 nM.
In turn, `CN1C(=O)[C@H](NC(=O)c2nn(Cc3ccccc3F)cc2F)[C@@H]2C[C@@H]2c2nccnc21` [Example 179B, 4-fluoro-1-(2-fluorobenzyl)-N-((7R,7aR,8aS)-5-methyl-6-oxo-5,6,7,7a,8,8a-hexahydrocyclopropa[d]pyrazino[2,3-b]azepin-7-yl)-1H-pyrazole-3-carboxamide] returned an IC50 of over 3000 nM.
Under `CN1C(=O)[C@H](NC(=O)c2nn(Cc3ccccc3)cc2F)CCc2cccnc21` [Example 111A, (R)-1-benzyl-4-fluoro-N-(9-methyl-8-oxo-6,7,8,9-tetrahydro-5H-pyrido[2,3-b]azepin-7-yl)-1H-pyrazole-3-carboxamide] stands 1000 to 10000 nM.
